Among the data in ChEMBL document CHEMBL3045275, “Synthesis and antibacterial activity of some new hydrazones” (2013) are zone of inhibition values, retold here.

The subject of one assay is Bacillus subtilis. Description: Antibacterial activity against Bacillus subtilis assessed as diameter of growth inhibition zone at 100 ug/ml after 24 hr by agar diffusion method. The assay is classed as functional. To be noted: read-out: DIZ. For orientation: In agar diffusion tests the substance spreads into inoculated agar from a disc or well.
For `C(=C\c1ccccc1)/C(=N\Nc1nc(-c2ccccc2)cs1)c1ccccc1`, the zone of inhibition at 100 µg/mL came to 8.5 mm.

Take `CC(/C=C/c1ccccc1)=N\Nc1ccc(-c2nc3ccccc3[nH]2)cc1`: the zone of inhibition at 100 µg/mL amounted to 8.5 mm.

Turning to `C(=C\c1ccccc1)/C(=N/Nc1ccc(-c2nc3ccccc3[nH]2)cc1)c1ccccc1`, the zone of inhibition at 100 µg/mL is 8.5 mm.

For `CC(/C=C/c1ccccc1)=N\NC(=O)c1ccncc1`, the zone of inhibition at 100 µg/mL is 8.5 mm.

`O=C(N/N=C(/C=C/c1ccccc1)c1ccccc1)c1ccncc1`: the zone of inhibition at 100 µg/mL was determined as 8.5 mm.

A further assay deals with Proteus mirabilis. Description: Antibacterial activity against Proteus mirabilis assessed as diameter of growth inhibition zone at 50 ug/ml after 24 hr by agar diffusion method. Type of assay: functional. The conditions noted are these: read-out: DIZ.
Take `C(=C\c1ccccc1)/C(=N\Nc1nc(-c2ccccc2)cs1)c1ccccc1`: the zone of inhibition at 50 µg/mL is 6.5 mm.

In the case of `CC(/C=C/c1ccccc1)=N\Nc1ccc(-c2nc3ccccc3[nH]2)cc1`, the zone of inhibition at 50 µg/mL came out at 6.5 mm.

Turning to `C(=C\c1ccccc1)/C(=N/Nc1ccc(-c2nc3ccccc3[nH]2)cc1)c1ccccc1`, the zone of inhibition at 50 µg/mL was 6 mm.

Consider `CC(/C=C/c1ccccc1)=N\NC(=O)c1ccncc1`, for which the zone of inhibition at 50 µg/mL is 6 mm.

Regarding `O=C(N/N=C(/C=C/c1ccccc1)c1ccccc1)c1ccncc1`, the zone of inhibition at 50 µg/mL was found to be 6.5 mm.

For `O=C(O)c1cn(C2CC2)c2cc(N3CCNCC3)c(F)cc2c1=O` [CIPROFLOXACIN], the zone of inhibition at 50 µg/mL was 19.5 mm.

The test system of the next assay is Salmonella typhi. Description: Antibacterial activity against Salmonella enterica subsp. enterica serovar Typhi assessed as diameter of growth inhibition zone at 50 ug/ml after 24 hr by agar diffusion method. Type of assay: functional. To be noted: read-out: DIZ.
For the compound `C(=C\c1ccccc1)/C(=N\Nc1nc(-c2ccccc2)cs1)c1ccccc1`, the zone of inhibition at 50 µg/mL was found to be 6 mm.

For the compound `CC(/C=C/c1ccccc1)=N\Nc1ccc(-c2nc3ccccc3[nH]2)cc1`, the zone of inhibition at 50 µg/mL was found to be 6 mm.

On to `C(=C\c1ccccc1)/C(=N/Nc1ccc(-c2nc3ccccc3[nH]2)cc1)c1ccccc1`, for which the zone of inhibition at 50 µg/mL was found to be 6.5 mm.

Take `CC(/C=C/c1ccccc1)=N\NC(=O)c1ccncc1`: the zone of inhibition at 50 µg/mL worked out at 6 mm.

`O=C(N/N=C(/C=C/c1ccccc1)c1ccccc1)c1ccncc1`: the zone of inhibition at 50 µg/mL is 6 mm.

For `O=C(O)c1cn(C2CC2)c2cc(N3CCNCC3)c(F)cc2c1=O` [CIPROFLOXACIN], the zone of inhibition at 50 µg/mL stood at 18 mm.

Another assay concerns Pseudomonas aeruginosa. Kind of assay: Antibacterial activity against Pseudomonas aeruginosa assessed as diameter of growth inhibition zone at 50 ug/ml after 24 hr by agar diffusion method. The assay is classed as functional. The conditions noted are these: read-out: DIZ.
For the compound `C(=C\c1ccccc1)/C(=N\Nc1nc(-c2ccccc2)cs1)c1ccccc1`, the zone of inhibition at 50 µg/mL stood at 6 mm.

As for `CC(/C=C/c1ccccc1)=N\Nc1ccc(-c2nc3ccccc3[nH]2)cc1`, the zone of inhibition at 50 µg/mL was 6 mm.

For the compound `C(=C\c1ccccc1)/C(=N/Nc1ccc(-c2nc3ccccc3[nH]2)cc1)c1ccccc1`, the zone of inhibition at 50 µg/mL is 6 mm.

Turning to `CC(/C=C/c1ccccc1)=N\NC(=O)c1ccncc1`, the zone of inhibition at 50 µg/mL came to 6 mm.

`O=C(N/N=C(/C=C/c1ccccc1)c1ccccc1)c1ccncc1`: the zone of inhibition at 50 µg/mL was found to be 6 mm.

Consider `O=C(O)c1cn(C2CC2)c2cc(N3CCNCC3)c(F)cc2c1=O` [CIPROFLOXACIN], for which the zone of inhibition at 50 µg/mL was 19 mm.

The next assay deals with Escherichia coli. Kind of assay: Antibacterial activity against Escherichia coli assessed as diameter of growth inhibition zone at 50 ug/ml after 24 hr by agar diffusion method. The assay is classed as functional. The conditions noted are these: read-out: DIZ.
For the compound `C(=C\c1ccccc1)/C(=N\Nc1nc(-c2ccccc2)cs1)c1ccccc1`, the zone of inhibition at 50 µg/mL was 7 mm.

With `CC(/C=C/c1ccccc1)=N\Nc1ccc(-c2nc3ccccc3[nH]2)cc1`, the zone of inhibition at 50 µg/mL was 6.5 mm.

Turning to `C(=C\c1ccccc1)/C(=N/Nc1ccc(-c2nc3ccccc3[nH]2)cc1)c1ccccc1`, the zone of inhibition at 50 µg/mL is 6 mm.

For `CC(/C=C/c1ccccc1)=N\NC(=O)c1ccncc1`, the zone of inhibition at 50 µg/mL came out at 6 mm.

In the case of `O=C(N/N=C(/C=C/c1ccccc1)c1ccccc1)c1ccncc1`, the zone of inhibition at 50 µg/mL came to 6 mm.

Take `O=C(O)c1cn(C2CC2)c2cc(N3CCNCC3)c(F)cc2c1=O` [CIPROFLOXACIN]: the zone of inhibition at 50 µg/mL stood at 18.5 mm.

Another assay relates to Staphylococcus aureus. Kind of assay: Antibacterial activity against Staphylococcus aureus assessed as diameter of growth inhibition zone at 50 ug/ml after 24 hr by agar diffusion method. Type of assay: functional. To be noted: read-out: DIZ.
In the case of `C(=C\c1ccccc1)/C(=N\Nc1nc(-c2ccccc2)cs1)c1ccccc1`, the zone of inhibition at 50 µg/mL was found to be 6.5 mm.

Consider `CC(/C=C/c1ccccc1)=N\Nc1ccc(-c2nc3ccccc3[nH]2)cc1`, for which the zone of inhibition at 50 µg/mL is 6.5 mm.

Consider `C(=C\c1ccccc1)/C(=N/Nc1ccc(-c2nc3ccccc3[nH]2)cc1)c1ccccc1`, for which the zone of inhibition at 50 µg/mL stood at 6.5 mm.

On to `CC(/C=C/c1ccccc1)=N\NC(=O)c1ccncc1`, for which the zone of inhibition at 50 µg/mL worked out at 6 mm.

As for `O=C(N/N=C(/C=C/c1ccccc1)c1ccccc1)c1ccncc1`, the zone of inhibition at 50 µg/mL amounted to 6 mm.

With `O=C(O)c1cn(C2CC2)c2cc(N3CCNCC3)c(F)cc2c1=O` [CIPROFLOXACIN], the zone of inhibition at 50 µg/mL turned out to be 18 mm.

For another assay, the system named is Bacillus subtilis. Description: Antibacterial activity against Bacillus subtilis assessed as diameter of growth inhibition zone at 50 ug/ml after 24 hr by agar diffusion method. Type of assay: functional. To be noted: read-out: DIZ.
On to `C(=C\c1ccccc1)/C(=N\Nc1nc(-c2ccccc2)cs1)c1ccccc1`, for which the zone of inhibition at 50 µg/mL is 6.5 mm.

Turning to `CC(/C=C/c1ccccc1)=N\Nc1ccc(-c2nc3ccccc3[nH]2)cc1`, the zone of inhibition at 50 µg/mL came out at 6 mm.

For `C(=C\c1ccccc1)/C(=N/Nc1ccc(-c2nc3ccccc3[nH]2)cc1)c1ccccc1`, the zone of inhibition at 50 µg/mL was found to be 6 mm.

Turning to `CC(/C=C/c1ccccc1)=N\NC(=O)c1ccncc1`, the zone of inhibition at 50 µg/mL worked out at 6 mm.

Turning to `O=C(N/N=C(/C=C/c1ccccc1)c1ccccc1)c1ccncc1`, the zone of inhibition at 50 µg/mL was determined as 6 mm.

On to `O=C(O)c1cn(C2CC2)c2cc(N3CCNCC3)c(F)cc2c1=O` [CIPROFLOXACIN], for which the zone of inhibition at 50 µg/mL was found to be 18 mm.

A further assay deals with Proteus mirabilis. Description: Antibacterial activity against Proteus mirabilis assessed as diameter of growth inhibition zone at 100 ug/ml after 24 hr by agar diffusion method. The assay is classed as functional. To be noted: read-out: DIZ.
Turning to `C(=C\c1ccccc1)/C(=N\Nc1nc(-c2ccccc2)cs1)c1ccccc1`, the zone of inhibition at 100 µg/mL is 8.5 mm.

As to `CC(/C=C/c1ccccc1)=N\Nc1ccc(-c2nc3ccccc3[nH]2)cc1`, the zone of inhibition at 100 µg/mL was 8.5 mm.

In the case of `C(=C\c1ccccc1)/C(=N/Nc1ccc(-c2nc3ccccc3[nH]2)cc1)c1ccccc1`, the zone of inhibition at 100 µg/mL turned out to be 8.5 mm.

For `CC(/C=C/c1ccccc1)=N\NC(=O)c1ccncc1`, the zone of inhibition at 100 µg/mL came to 8.5 mm.

`O=C(N/N=C(/C=C/c1ccccc1)c1ccccc1)c1ccncc1`: the zone of inhibition at 100 µg/mL came out at 8 mm.

The subject of the next assay is Salmonella typhi. Description: Antibacterial activity against Salmonella enterica subsp. enterica serovar Typhi assessed as diameter of growth inhibition zone at 100 ug/ml after 24 hr by agar diffusion method. Type of assay: functional. The conditions noted are these: read-out: DIZ.
In the case of `C(=C\c1ccccc1)/C(=N\Nc1nc(-c2ccccc2)cs1)c1ccccc1`, the zone of inhibition at 100 µg/mL amounted to 8 mm.

Regarding `CC(/C=C/c1ccccc1)=N\Nc1ccc(-c2nc3ccccc3[nH]2)cc1`, the zone of inhibition at 100 µg/mL worked out at 8 mm.

For `C(=C\c1ccccc1)/C(=N/Nc1ccc(-c2nc3ccccc3[nH]2)cc1)c1ccccc1`, the zone of inhibition at 100 µg/mL amounted to 8 mm.

Regarding `CC(/C=C/c1ccccc1)=N\NC(=O)c1ccncc1`, the zone of inhibition at 100 µg/mL came out at 8.5 mm.

With `O=C(N/N=C(/C=C/c1ccccc1)c1ccccc1)c1ccncc1`, the zone of inhibition at 100 µg/mL is 8 mm.

In another assay the test system is Pseudomonas aeruginosa. Kind of assay: Antibacterial activity against Pseudomonas aeruginosa assessed as diameter of growth inhibition zone at 100 ug/ml after 24 hr by agar diffusion method. To be noted: read-out: DIZ. Type of assay: functional.
Take `C(=C\c1ccccc1)/C(=N\Nc1nc(-c2ccccc2)cs1)c1ccccc1`: the zone of inhibition at 100 µg/mL came to 8 mm.

In the case of `CC(/C=C/c1ccccc1)=N\Nc1ccc(-c2nc3ccccc3[nH]2)cc1`, the zone of inhibition at 100 µg/mL was 8 mm.

As to `C(=C\c1ccccc1)/C(=N/Nc1ccc(-c2nc3ccccc3[nH]2)cc1)c1ccccc1`, the zone of inhibition at 100 µg/mL was 8.5 mm.

For the compound `CC(/C=C/c1ccccc1)=N\NC(=O)c1ccncc1`, the zone of inhibition at 100 µg/mL was 8 mm.

Take `O=C(N/N=C(/C=C/c1ccccc1)c1ccccc1)c1ccncc1`: the zone of inhibition at 100 µg/mL amounted to 8.5 mm.

The subject of a further assay is Escherichia coli. Description: Antibacterial activity against Escherichia coli assessed as diameter of growth inhibition zone at 100 ug/ml after 24 hr by agar diffusion method. Type of assay: functional. The conditions noted are these: read-out: DIZ.
In the case of `C(=C\c1ccccc1)/C(=N\Nc1nc(-c2ccccc2)cs1)c1ccccc1`, the zone of inhibition at 100 µg/mL was determined as 8.5 mm.

For `CC(/C=C/c1ccccc1)=N\Nc1ccc(-c2nc3ccccc3[nH]2)cc1`, the zone of inhibition at 100 µg/mL amounted to 9 mm.

On to `C(=C\c1ccccc1)/C(=N/Nc1ccc(-c2nc3ccccc3[nH]2)cc1)c1ccccc1`, for which the zone of inhibition at 100 µg/mL amounted to 8.5 mm.

Consider `CC(/C=C/c1ccccc1)=N\NC(=O)c1ccncc1`, for which the zone of inhibition at 100 µg/mL was determined as 8 mm.

In the case of `O=C(N/N=C(/C=C/c1ccccc1)c1ccccc1)c1ccncc1`, the zone of inhibition at 100 µg/mL was found to be 8 mm.

Another assay relates to Staphylococcus aureus. Kind of assay: Antibacterial activity against Staphylococcus aureus assessed as diameter of growth inhibition zone at 100 ug/ml after 24 hr by agar diffusion method. Type of assay: functional. To be noted: read-out: DIZ.
Consider `C(=C\c1ccccc1)/C(=N\Nc1nc(-c2ccccc2)cs1)c1ccccc1`, for which the zone of inhibition at 100 µg/mL turned out to be 8.5 mm.

On to `CC(/C=C/c1ccccc1)=N\Nc1ccc(-c2nc3ccccc3[nH]2)cc1`, for which the zone of inhibition at 100 µg/mL came to 8 mm.

Consider `C(=C\c1ccccc1)/C(=N/Nc1ccc(-c2nc3ccccc3[nH]2)cc1)c1ccccc1`, for which the zone of inhibition at 100 µg/mL was determined as 9 mm.

On to `CC(/C=C/c1ccccc1)=N\NC(=O)c1ccncc1`, for which the zone of inhibition at 100 µg/mL was 8.5 mm.

Consider `O=C(N/N=C(/C=C/c1ccccc1)c1ccccc1)c1ccncc1`, for which the zone of inhibition at 100 µg/mL amounted to 8 mm.
